Data on 33 molecules can be found in US8383139B2 (Bayer CropScience AG, priority 2008, dated 2013).

A short description of series [1]: log P by HPLC on reversed-phase columns (C 18), EEC Directive 79/831 Annex V.A8. The class given is physicochemical. To be noted: for chromatographic logP: reversed-phase C18 HPLC column, pH 2.3, [a] HPLC, read-out: log p.
In the next series the test system is Sphaerotheca fuliginea. As to the kind of experiment: Sphaerotheca test (cucumber)/protective. The class given is in vivo. To be noted: Podosphaera fuliginea, 168 h, 500 ppm active substance, protective, evaluation 7 days after inoculation, read-out: degree of effectiveness. The method, then:
• Solvents: 49 parts by weight of N,N-dimethylformamide • Emulsifier: 1 part by weight of alkylaryl polyglycol ether (polyoxyethylene (16) tristearylphenyl ether) To prepare a suitable active substance composition, 1 part by weight of active substance is mixed with the given amounts of solvents and emulsifier and the concentrate is diluted to the desired concentration using water. For the testing of protective effectiveness, young cucumber plants are sprayed with the active substance composition in the application rate given. One day after the treatment, the plants are inoculated with a suspension of spores of Sphaerotheca fuliginea. Subsequently, the plants are placed in a greenhouse at 70% relative humidity and at a temperature of 23° C. Evaluation is carried out 7 days after the inoculation. In this connection, 0% means a degree of effectiveness corresponding to that of the control, while a degree of effectiveness of 100% means that no infestation is observed.

The subject of another series is Puccinia triticina. As to the kind of experiment: Puccinia triticina test (wheat)/protective. The class given is in vivo. To be noted: 192 h, 500 ppm active substance, protective, evaluation 8 days after inoculation, read-out: degree of effectiveness. The method, then: • Solvent: 50 parts by weight of N,N-dimethylacetamide • Emulsifier: 1 part by weight of alkylaryl polyglycol ether (polyoxyethylene (16) tristearylphenyl ether) To prepare a suitable active substance composition, 1 part by weight of active substance is mixed with the given amounts of solvent and emulsifier and the concentrate is diluted to the desired concentration using water. For the testing of protective effectiveness, young plants are sprayed with the active substance composition in the application rate given. After the spray coating has been dried on, the plants are sprayed with spores with a suspension of spores of Puccinia triticina. The plants remain in an incubation chamber at 20° C. and 100% relative humidity for 48 hours. The plants are placed in a greenhouse at a temperature of approximately 20° C. and a relative humidity of approximately 80%. Evaluation is carried out 8 days after the inoculation. In this connection, 0% means a degree of effectiveness corresponding to that of the control, while a degree of effectiveness of 100% means that no infestation is observed.

The test system of another series is Septoria tritici. Kind of series: Septoria tritici test (wheat)/protective. The class given is in vivo. Particulars: Zymoseptoria tritici, 504 h, 500 ppm active substance, protective, evaluation 21 days after inoculation, read-out: degree of effectiveness. The method, then:
• Solvent: 50 parts by weight of N,N-dimethylacetamide • Emulsifier: 1 part by weight of alkylaryl polyglycol ether (polyoxyethylene (16) tristearylphenyl ether) To prepare a suitable active substance composition, 1 part by weight of active substance is mixed with the given amounts of solvent and emulsifier and the concentrate is diluted to the desired concentration using water. For the testing of protective effectiveness, young plants are sprayed with the active substance composition at the application rate given. After the spray coating has dried on, the plants are sprayed with a suspension of spores of Septoria tritici. The plants remain in an incubation chamber at 20° C. and 100% relative humidity for 48 hours. The plants are afterwards placed under a transparent hood at 15° C. and 100% relative humidity for a further 60 hours. The plants are placed in a greenhouse at a temperature of approximately 15° C. and a relative humidity of 80%. Evaluation is carried out 21 days after the inoculation. In this connection, 0% means a degree of effectiveness corresponding to that of the control, while a degree of effectiveness of 100% means that no infestation is observed.

For the next series, the system named is Uromyces appendiculatus. Kind of series: Uromyces test (beans)/protective. To be noted: 240 h, 100 ppm active substance, protective, evaluation 10 days after inoculation, read-out: degree of effectiveness. Format: in vivo. The method, then: • Solvents: 24.5 parts by weight of acetone • 24.5 parts by weight of dimethylacetamide • Emulsifier: 1 part by weight of alkylaryl polyglycol ether (polyoxyethylene (16) tristearylphenyl ether)
To prepare a suitable active substance composition, 1 part by weight of active substance is mixed with the given amounts of solvents and emulsifier and the concentrate is diluted to the desired concentration using water.
For the testing of protective effectiveness, young plants are sprayed with the active substance composition in the application rate given. After the spray coating has been dried on, the plants are inoculated with an aqueous suspension of the spores of the bean rust pathogen Uromyces appendiculatus and then remain in an incubation chamber at approximately 20° C. and 100% relative humidity for 1 day.
The plants are then placed in a greenhouse at approximately 21° C. and a relative humidity of approximately 90%.
Evaluation is carried out 10 days after the inoculation. In this connection, 0% means a degree of effectiveness corresponding to that of the control, while a degree of effectiveness of 100% means that no infestation is observed.

[2] abbreviates: acid region pH 2.3, 0.1% aqueous phosphoric acid and acetonitrile.
Where [3] appears, read: [b] LC-MS, acid region pH 2.7, 0.1% aqueous formic acid and acetonitrile.
[4] abbreviates: [a] HPLC, acid region pH 2.3, 0.1% aqueous phosphoric acid and acetonitrile.

In the case of `CCN(C)C=Nc1cc(C)c(Oc2nc(Cc3cccc(OC)c3)ns2)cc1C` [Example 16, N-ethyl-N′-(4-{[3-(3-methoxybenzyl)-1,2,4-thiadiazol-5-yl]oxy}-2,5-dimethylphenyl)-N-methylimidoformamide], the chromatographic logP in series [1] (setting [2]) amounted to 1.7. In addition, the pest or weed control at 500 ppm in the series on Sphaerotheca fuliginea, in the series with Puccinia triticina and in the series on Septoria tritici was not below 70% in each case.

Regarding `Cc1cc(Oc2nc(C(C)c3ccc(Cl)cc3)ns2)c(C)cc1N=CN1CCCCC1` (stereo not drawn) [Example 18, 4-({3-[1-(4-chlorophenyl)ethyl]-1,2,4-thiadiazol-5-yl}oxy)-2,5-dimethyl-N-(piperidin-1-ylmethylidene)aniline], the chromatographic logP in series [1] (setting [2]) was determined as 2.41. The pest or weed control at 100 ppm in the series with Uromyces appendiculatus was not below 70%. Moreover, the pest or weed control at 500 ppm in the series on Sphaerotheca fuliginea and with Puccinia triticina was not below 70% in each case.

As to `Cc1cc(Oc2nc(C(C)(C)c3ccc(Cl)cc3)ns2)c(Cl)cc1N=CN(C)C(C)C` [Example 30, N′-[5-chloro-4-({3-[2-(4-chlorophenyl)propan-2-yl]-1,2,4-thiadiazol-5-yl}oxy)-2-methylphenyl]-N-methyl-N-(propan-2-yl)imidoformamide], the chromatographic logP in series [1] (setting [2]) was 2.86. Moreover, the pest or weed control at 500 ppm with Sphaerotheca fuliginea and in the series with Puccinia triticina was not below 70% throughout. With `Cc1cc(Oc2nc(Cc3ccc(Br)cc3)ns2)c(C)cc1N=CN1CCCCC1` [Example 33, 4-{[3-(4-bromobenzyl)-1,2,4-thiadiazol-5-yl]oxy}-2,5-dimethyl-N-(piperidin-1-ylmethylidene)aniline], the chromatographic logP in series [1] (setting [2]) is 2.17. Further, the pest or weed control at 500 ppm in the series on Sphaerotheca fuliginea, with Puccinia triticina and in the series with Septoria tritici was not below 70% throughout.

As for `Cc1cc(Oc2nc(C3(c4ccc(Cl)cc4)CC3)ns2)c(Cl)cc1N=CN(C)C(C)C` [Example 41, N′-[5-chloro-4-({3-[1-(4-chlorophenyl)cyclopropyl]-1,2,4-thiadiazol-5-yl}oxy)-2-methylphenyl]-N-methyl-N-(propan-2-yl)imidoformamide], the chromatographic logP in series [1] (setting [2]) was 2.71. In addition, the pest or weed control at 500 ppm with Sphaerotheca fuliginea, with Puccinia triticina and in the series on Septoria tritici was not below 70% in each case. Consider `Cc1cc(Oc2nc(Cc3ccc(Cl)c(Cl)c3)ns2)c(C)cc1N=CN1CCCCC1` [Example 48, 4-{[3-(3,4-dichlorobenzyl)-1,2,4-thiadiazol-5-yl]oxy}-2,5-dimethyl-N-(piperidin-1-ylmethylidene)aniline], for which the pest or weed control at 100 ppm in the series on Uromyces appendiculatus was not below 70%. Further, in the series on Sphaerotheca fuliginea, the pest or weed control at 500 ppm is not below 70%. With `COc1ccccc1Cc1nsc(Oc2cc(C)c(N=CN3CCCCC3)cc2C)n1` [Example 50, 4-{[3-(2-methoxybenzyl)-1,2,4-thiadiazol-5-yl]oxy}-2,5-dimethyl-N-(piperidin-1-ylmethylidene)aniline], the chromatographic logP in series [1] (setting [2]) came out at 2.05. For the same molecule, the pest or weed control at 100 ppm with Uromyces appendiculatus is not below 70%. Moreover, the pest or weed control at 500 ppm in the series on Sphaerotheca fuliginea and in the series on Septoria tritici was not below 70% in each case. For the molecule `CCN(C)C=Nc1cc(Cl)c(Oc2nc(Cc3ccc(Cl)cc3Cl)ns2)cc1C` [Example 118], in series [1] (setting [3]), the log p is 2.42^[b]. Regarding `CCN(C)C=Nc1cc(Cl)c(Oc2nc(Cc3ccc(Br)cc3)ns2)cc1C` [Example 119], the log p in series [1] (setting [3]) is 2.26^[b].

Turning to `CCN(C)C=Nc1cc(C)c(Oc2nc(Cc3ccc(C)cc3)ns2)cc1C` [Example 120], the log p in series [1] (setting [3]) was 2.12^[b].

Take `Cc1cc(Oc2nc(Cc3ccccc3[N+](=O)[O-])ns2)c(C)cc1N=CN1CCCCC1` [Example 121]: the log p in series [1] (setting [4]) is 2.16^[a].

Regarding `Cc1ccc(Cc2nsc(Oc3cc(C)c(N=CN4CCCCC4)cc3C)n2)cc1` [Example 122], the log p in series [1] (setting [4]) was 2.49^[a].

Consider `Cc1cc(Oc2nc(Cc3ccc(Cl)cc3)ns2)c(C)cc1N=CN(C)C1CC1` [Example 123], for which the log p in series [1] (setting [3]) was 2.06^[b]. Turning to `CCOCC(C1CC1)N(C)C=Nc1cc(C)c(Oc2nc(Cc3ccc(Cl)cc3)ns2)cc1C` (stereo not drawn) [Example 124], the log p in series [1] (setting [3]) is 2.56^[b]. Still for that read-out and setting: next, `Cc1cc(Oc2nc(Cc3ccc(SC(F)(F)F)cc3)ns2)c(C)cc1N=CN(C)CC(F)F` [Example 125]: 2.68^[b]. In the case of `Cc1cc(Oc2nc(Cc3ccc(SC(F)(F)F)cc3)ns2)c(C)cc1N=CN(C)C1CC1` [Example 126], the log p in series [1] (setting [3]) was 1.83^[b]. For the molecule `Cc1cc(Oc2nc(Cc3ccc(F)cc3)ns2)c(C)cc1N=CN(C)C1CC1` [Example 127], the log p in series [1] (setting [3]) is 1.83^[b]. Regarding `CCOCC(C1CC1)N(C)C=Nc1cc(C)c(Oc2nc(Cc3ccc(SC(F)(F)F)cc3)ns2)cc1C` (stereo not drawn) [Example 128], in series [1] (setting [3]), the log p was 2.92^[b]. As for `Cc1cc(Oc2nc(Cc3ccc(C(F)(F)F)cc3)ns2)c(C)cc1N=CN(C)CC(F)F` [Example 129], the log p in series [1] (setting [3]) was 2.38^[b]. Same read-out and setting: under `Cc1cc(Oc2nc(Cc3ccc(C(F)(F)F)cc3)ns2)c(C)cc1N=CN(C)C1CC1` [Example 130] stands 2.28^[b]; under `Cc1cc(Oc2nc(Cc3ccc(F)cc3)ns2)c(C)cc1N=CN(C)CC(F)F` [Example 131], 1.99^[b]; under `CCOCC(C1CC1)N(C)C=Nc1cc(C)c(Oc2nc(Cc3ccc(F)cc3)ns2)cc1C` (stereo not drawn) [Example 132], 2.26^[b]. As to `CCOCC(C1CC1)N(C)C=Nc1cc(C)c(Oc2nc(Cc3ccc(C(F)(F)F)cc3)ns2)cc1C` (stereo not drawn) [Example 133], in series [1] (setting [3]), the log p is 2.43^[b]. As for `CCOCC(C1CC1)N(C)C=Nc1cc(C)c(Oc2nc(Cc3ccc(OC)cc3)ns2)cc1C` (stereo not drawn) [Example 134], the log p in series [1] (setting [3]) is 2.36^[b]. Regarding `COc1ccc(Cc2nsc(Oc3cc(C)c(N=CN(C)C4CC4)cc3C)n2)cc1` [Example 135], in series [1] (setting [3]), the log p was 1.92^[b]. As for `COc1ccc(Cc2nsc(Oc3cc(C)c(N=CN(C)CC(F)F)cc3C)n2)cc1` [Example 136], the log p in series [1] (setting [3]) was 1.87^[b]. Take `Cc1ccc(Cc2nsc(Oc3cc(C)c(N=CN(C)CC(F)F)cc3C)n2)cc1` [Example 137]: in series [1] (setting [3]), the log p was 2.25^[b].

For the molecule `Cc1ccc(Cc2nsc(Oc3cc(C)c(N=CN(C)C4CC4)cc3C)n2)cc1` [Example 138], the log p in series [1] (setting [3]) is 2.19^[b]. Turning to `CCOCC(NC=Nc1cc(C)c(Oc2nc(Cc3ccc(Cl)cc3)ns2)cc1C)C1CC1` (stereo not drawn) [Example 139], the log p in series [1] (setting [4]) is 2.7^[a].

With `CCOCC(C1CC1)N(C)C=Nc1cc(C)c(Oc2nc(Cc3ccc(C)cc3)ns2)cc1C` (stereo not drawn) [Example 140], the log p in series [1] (setting [3]) is 2.4^[b]. `Cc1cc(Oc2nc(Cc3ccc(OC(F)(F)F)cc3)ns2)c(C)cc1N=CN(C)C1CC1` [Example 141]: the log p in series [1] (setting [3]) is 2.2^[b]. On to `Cc1cc(Oc2nc(Cc3ccc(OC(F)(F)F)cc3)ns2)c(C)cc1N=CN(C)CC(F)F` [Example 142], for which the log p in series [1] (setting [3]) is 2.46^[b]. `CCOCC(C1CC1)N(C)C=Nc1cc(C)c(Oc2nc(Cc3ccc(OC(F)(F)F)cc3)ns2)cc1C` (stereo not drawn) [Example 143]: the log p in series [1] (setting [3]) was 2.75^[b].
